Series [1] is classed as in vitro ADME, rat. As to conditions: rat, plasma. On the procedure:
The plasma stability of compound IB′ was determined using plasma from four species. Results for mouse, rat, dog and human are shown in Tables 5, 6, 7 and 8 respectively. Alvocidib and flumazenil were used as controls. In mouse, rat and human plasma, compound IB′ maintained 100% stability after 5 hour incubation. In dog plasma, approximately 90% of compound IB′ remained after 5 hours.

The test system of the next series is MCL-1 protein expression. Description: Mouse xenograft pharmacodynamic study. The format is in vivo. The settings on record: MV4-11 xenograft tumors, 48 hours post-treatment. On the procedure:
The in vivo pharmacodynamic activity of compound IB′ was determined in a MV4-11 mouse xenograft model of AML (FIG. 6A-B). Injection of 8×10^6 cells/mouse was followed by growth of tumors to approximately 100 mm^3. After tumors reached an appropriate size, mice were randomized into the following treatment groups: Vehicle, compound IB′ (2.5 mg/kg), compound IB′ (0.5 mg/kg), compound IB′ (0.1 mg/kg), compound IB′ (0.02 mg/kg). Mice were administered a single treatment dose and tumors were harvested 48 hours post-treatment. MCL-1 protein levels were assessed on harvested tumors using standard polyacrylamide gel electrophoresis and immunoblotting technique (FIG. 6A).

Data on one molecule can be found in patent US12338261B2 (SUMITOMO PHARMA ONCOLOGY, INC., priority 2015, dated 2025).

Like-named read-outs stand apart in the source and are kept apart here.

In the case of `CN1CC[C@H](c2c(OP(=O)(O)O)cc(O)c3c(=O)cc(-c4ccccc4Cl)oc23)[C@H](O)C1` [Compound IB′, 2-(2-chlorophenyl)-5-hydroxy-8-(3-hydroxy-1-methylpiperidin-4-yl)-4-oxo-4H-chromen-7-yl dihydrogen phosphate], the “% Remaining” value in series [1] (0 h) is 100.00%; in series [1] (0.5 h), 97.39%; in series [1] (1 h) it was 94.60%; in series [1] (2 h) it was 100.04%; in series [1] (3 h), 107.48%; in series [1] (4 h) it was 100.20%. Moreover, the “Reduction of MCL-1 Expression” value in the series with MCL-1 protein expression (single dose 0.02 mg/kg) was found to be 0.0%; in the series with MCL-1 protein expression (single dose 0.1 mg/kg), 46%; in the series on MCL-1 protein expression (single dose 0.5 mg/kg) it was 61%; with MCL-1 protein expression (single dose 2.5 mg/kg), 54%.
